Laboratory results: patent US20150141375A1 (priority 2009, published 2015)
Several values for one entry are separate records, joined by “and”; a condition that tells them apart may be missing. Identical values can stand only once. Entries after “also recorded” stand apart in the source; their conditions may differ. Like-named read-outs stand apart in the source and are kept apart here.

What was measured:
[1] = Clearance and organ distribution in mouse; assay type: in vivo; conditions: oral 5 mg/kg [C2-14C]CMX001, four hours
[2] = tested on: adenovirus; experiment: First fifteen EIND patients: adenovirus; conditions: individual patients
[3] = tested on: JCV; experiment: Established JCV infection of SVG cells, in situ DNA hybridization; assay type: cell-based, JC virus; conditions: 0.1 μM, four days
[4] = tested on: adenovirus; experiment: Pediatric bone marrow transplant recipient with disseminated adenovirus infection
[5] = tested on: EBV; experiment: In vitro potency against dsDNA viruses: EBV; assay type: cell-based
[6] = tested on: HSV-1; experiment: In vitro potency against dsDNA viruses: HSV-1; assay type: cell-based
[7] = tested on: Vaccinia Virus; experiment: microbe, parasite or virus in culture; assay type: cell-based
[8] = tested on: BK Virus; experiment: In vitro potency against BK Virus in WI-38 cells; assay type: cell-based
[9] = tested on: JCV; experiment: First fifteen EIND patients: JCV; assay type: in vivo, human; conditions: one patient
[10] = tested on: HSV-2; experiment: In vitro efficacy against HSV-2 strains in HFF (CPE, plaque reduction); assay type: cell-based
Description: In vitro screening by CPE assay in human foreskin fibroblast (HFF) cells with confirmation using plaque reduction assays in HFF.

[11] = tested on: HSV-1; experiment: microbe, parasite or virus in culture; assay type: cell-based
[12] = tested on: SVG cells; experiment: SVG cell viability / cell number (MTS, alamar blue, hematoxylin); assay type: cell-based, human
Protocol: (§1) Quantification of cell viability using the MTS [3-(4,5-dimethylthiazol-2-yl)-5-(3-carboxymethoxyphenyl)-2-(4-sulfophenyl)-2H-tetrazolium] assay is based on bioactivity of mitochondrial dehydrogenase in living cells, which converts colorless tetrazolium salt to a colored formazan. MTS assays were performed according to manufacturer's instructions (Promega, Madison Wis.). Briefly, culture medium was removed from cells and 50 μL of PBS was added into each well of a 96 well plate. Ten μL of MTS reagent were added to wells of cells, and to a well without cells to determine background. Mixtures were incubated at 37° C. for 2 hours and the absorbance was measured at 490 nm. Trypan blue staining was performed on identical cultures to correlate MTS values with cell viability. The final values indicated are the result from 3 replicates. The value for the non-treated control was set to 100% and all other values are represented as a percentage of the control. Alamar blue (AB) assay.
(§2) Quantification of cell viability using the alamar blue (AB) assay was performed according to the manufacturer's instructions (Invitrogen, Gaithersburg, Md.). Briefly, 10 μL of AB reagent was added to each well of a 96 well dish containing cells or without cells to determine background. Mixtures were incubated at 37° C. for 6 hours and the absorbance measured at 570 nm using 600 nm as a reference wavelength. The value for the non-treated control was set to 100% and all other values are represented as a percentage of the control.
(§3) Because cell density in cultures processed for in situ DNA hybridization could not be measured by MTS or AB assays, cell density was approximated in cell cultures processed by quantifying hematoxylin staining intensity. Coverslips containing cells were prepared for in situ DNA hybridization and co-stained with hematoxylin. Subsequently, each coverslip was scanned and the hematoxylin intensities quantified using ImageJ. To determine the total cell number per coverslip, images were acquired at 10 random positions at 100× magnification. Cells were counted throughout each image and the average cell number per slide was generated by averaging counts from the 10 images for each experimental group. Exactly 900 images at 100× magnification cover the surface of an 18 mm×18 mm coverslip.

[13] = as above; assay type: cell-based, human; conditions: human; for cytotoxicity at 1 μM: read-out: reduction in viability (MTS)
Protocol: as §1, §2, §3

[14] = tested on: ADV; experiment: EIND patients previously treated with other antivirals: ADV; assay type: in vivo, human; conditions: EIND 108104
Protocol: A further study has been conducted on patients with various viral infections and diseases associated with virus.
As shown in Table 5(b), all patients that have been previously treated with other antiviral agents for example cidofovir. […] After these patients are treated with CMX001, the patients show significant improvements.

[15] = Oral toxicology studies, nephrotoxicity; assay type: in vivo, mice, rats, rabbits and monkeys
Description: In addition, over twenty-one toxicology studies have been conducted in mice, rats, rabbits and monkeys with CMX001 being delivered by the oral route.

[16] = tested on: human astrocytes; experiment: Toxicity evaluation in human astrocytes (XTT); assay type: cell-based; conditions: two experiments, different astrocyte lots; listed as CMX001-044
[17] = tested on: CMV
[18] = tested on: JC; experiment: In vitro potency against dsDNA viruses: JC; assay type: cell-based, JC virus

CCCCCCCCCCCCCCCCOCCCOP(=O)(O)CO[C@H](CO)Cn1ccc(N)nc1=O [CMX001, Hexadecyloxypropyl-cidofovir]
availability and distribution [1]: orally available and widely distributed | AdV viremia after 1st week [2]: 3.2 Log 10 copies/mL and 5.4 Log 10 copies/mL and 5.0 Log 10 copies/mL and 2.3 Log 10 copies/mL and 7.4 Log 10 copies/mL and 3.4 Log 10 copies/mL and 5.2 Log 10 copies/mL and 2.0 Log 10 copies/mL | AdV viremia after 1st week, change from pre-RX [2]: 4.0 Log 10 copies/mL and 1.0 Log 10 copies/mL and 0.5 Log 10 copies/mL and 1.9 Log 10 copies/mL and 0.7 Log 10 copies/mL and 2.0 Log 10 copies/mL and 1.3 Log 10 copies/mL and 2.5 Log 10 copies/mL | AdV viremia after 2nd week [2]: 2.2 Log 10 copies/mL (2×) and 6.2 Log 10 copies/mL (2×) and 4.1 Log 10 copies/mL and 7.0 Log 10 copies/mL and 3.3 Log 10 copies/mL and 0 Log 10 copies/mL | AdV viremia after 2nd week, change from pre-RX [2]: 5.0 Log 10 copies/mL and 0.2 Log 10 copies/mL and 1.3 Log 10 copies/mL and 2.0 Log 10 copies/mL and 1.1 Log 10 copies/mL and 2.1 Log 10 copies/mL and 0.3 Log 10 copies/mL and 4.5 Log 10 copies/mL | Outcome [2]: Survived; also recorded: Death | elimination of JCV positive cells, normalized to total cell number [3]: 94% | tolerability ([4]; 2-3 mg/kg): well tolerated | peak cidofovir concentrations, fold lower than label for 5 mg/kg Vistide ([4]; female, human, plasma, oral): more than 100 fold | decrease in viral load ([4]; oral CMX001): 8 log | Enhanced Activity ([5]; CMX001 versus cidofovir EC50): >4250 | EC50 ([5]; human gammaherpesvirus 4, Dardi): 40 nM | Enhanced Activity ([6]; CMX001 versus cidofovir EC50): 250 | EC50 ([6]; Human alphaherpesvirus 1, MRC5, MRC-5): 60 nM | Enhanced Activity ([7]; CMX001 versus cidofovir EC50): 57 | EC50 ([7]; Orthopoxvirus vaccinia, HFF): 800 nM | EC50 ([8]; Betapolyomavirus hominis, WI-38): 130 nM | selectivity index (SI)-50 ([8]; WI-38, cells harvested 7 days after infection): 113 | JCV in cerebrospinal fluid (CSF) and urine [9]: became undetectable | EC50 ([10]; Human alphaherpesvirus 2, ACV resistant strain 11572): 27 ± 18 nM | EC50 ([10]; Human alphaherpesvirus 2, ACV resistant strain 11680): 9 ± 0.7 nM | EC50 ([10]; Human alphaherpesvirus 2, ACV resistant strain 12247): 21 ± 12 nM | EC50 ([10]; Human alphaherpesvirus 2, ACV resistant strain AG-3): 23 ± 9 nM | EC50 ([10]; Human alphaherpesvirus 2, G (wild type), Table 9): 29 ± 15 nM | EC50 ([10]; Human alphaherpesvirus 2, strain G): 10 ± 10 nM | EC50 ([10]; Human alphaherpesvirus 2, strain MS): 80 ± 70 nM | EC50 ([10]; Human alphaherpesvirus 2, strain SR): 20 ± 20 nM | EC50 ([11]; Human alphaherpesvirus 1, ACV resistant strain B-2006): 10 ± 0.7 nM | EC50 ([11]; Human alphaherpesvirus 1, ACV resistant strain DM2.1): 8 nM | EC50 ([11]; Human alphaherpesvirus 1, ACV resistant strain PAAr5): 10 nM | EC50 ([11]; Human alphaherpesvirus 1, F (wild type), Table 9): 15 ± 6 nM | EC50 ([11]; Human alphaherpesvirus 1, SC16, ACV resistant strain SC16-S1): 10 nM | EC50 ([11]; Human alphaherpesvirus 1, read-out: EC50 range, panel of wild-type and ACV-resistant isolates of HSV-1 and HSV-2): 8 to 30 nM | EC50 ([11]; Human alphaherpesvirus 1, strain E-377): 60 ± 30 nM | EC50 ([11]; Human alphaherpesvirus 1, strain F): 10 ± 5 nM | EC50 ([11]; Human alphaherpesvirus 1, strain HL-3): 10 ± 10 nM | reduction in total cell number (hematoxylin) ([12]; 0.01 μM): did not result in significant reduction | reduction in total cell number (hematoxylin) ([12]; 0.03 μM): 14% | reduction in total cell number (hematoxylin) ([12]; 0.07 μM): 39% | reduction in total cell number (hematoxylin) ([12]; 0.1 μM): 46% | cell viability (MTS) ([12]; 0.01 or 0.1 μM, non-infected or JCV-infected (established infection) SVG cells): did not alter cell viability | concentrations at which cytotoxicity was observed ([12]; SVG cells): ≥ 1000 nM | cytotoxicity at 1 μM ([13]; JCV-infected SVG cells (established infection), 1 μM, JCV-infected cells, established infection): 40% | cytotoxicity at 4 days, 0.01 μM ([13]; SVG cells, 0.01 μM, 4 days, read-out: reduction in cell viability (alamar blue)): 6% | cytotoxicity at 4 days, 0.1 μM ([13]; SVG cells, 0.1 μM, 4 days, read-out: reduction in cell viability (alamar blue)): 11% | cytotoxicity at 4 days, 1 μM ([13]; SVG cells, 1 μM, 4 days, read-out: reduction in cell viability (alamar blue)): 32% | cytotoxicity at 1 μM ([13]; non-infected SVG cells, 1 μM, non-infected cells): 15% | AdV viruria rebound, distance from baseline [14]: within 0.7 log10 from baseline. | hemorrhagic cystitis [14]: cystitis improved. | initial decline of AdV viruria [14]: 2.8 log10 decline, but it rebounded to | indication of nephrotoxicity ([15]; over twenty-one toxicology studies, oral route): In none of these studies | evidence of nephrotoxicity ([15]; single and repeated dosing in animals and human volunteers, 0.1 mg/kg to 4.0 mg/kg): no evidence of nephrotoxicity | TC50 [16]: 134400 nM and 165800 nM | peak plasma concentration of CMX001 ([17]; person with renal failure, following the first dose): 264 ng/mL | Plasma CMV by PCR ([17]; person, Week 5, 120 mg): 3307 | Plasma CMV by PCR ([17]; person, Week 10, 120 mg): 1541 | CMV DNA ([17]; person, following 2 weeks of skipped doses): 5,037 copies/mL | CMV plasma DNA ([17]; person, following the first dose (180 mg)): undetectable | CMV DNA ([17]; person, following the start of treatment): undetectable | renal, liver, or hematologic function ([17]; person, more than 16 weeks): No drug-related adverse changes in renal, liver, or hematologic function were observed | Enhanced Activity ([18]; CMX001 versus cidofovir EC50): 19 | EC50 ([18]; JC polyomavirus): 20 nM
